pKi: −log10 of the molar value.
Target: T1, Gamma-aminobutyric acid receptor subunit alpha-5 (Homo sapiens, UniProt P31644)
T1 sequence (P31644 whole entry): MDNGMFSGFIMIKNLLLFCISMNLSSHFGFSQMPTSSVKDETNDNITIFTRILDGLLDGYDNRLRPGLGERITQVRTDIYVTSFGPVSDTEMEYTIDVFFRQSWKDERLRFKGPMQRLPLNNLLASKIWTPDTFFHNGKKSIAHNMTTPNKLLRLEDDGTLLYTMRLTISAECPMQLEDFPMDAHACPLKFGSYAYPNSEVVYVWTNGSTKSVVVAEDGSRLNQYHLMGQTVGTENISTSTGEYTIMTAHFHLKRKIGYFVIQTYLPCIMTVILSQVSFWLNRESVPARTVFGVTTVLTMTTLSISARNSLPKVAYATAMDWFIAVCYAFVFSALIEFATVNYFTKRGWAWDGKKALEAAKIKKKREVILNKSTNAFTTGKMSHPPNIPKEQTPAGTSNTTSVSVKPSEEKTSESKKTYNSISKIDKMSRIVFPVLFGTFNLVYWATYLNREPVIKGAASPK
Assay: Binding Assay
Method: Receptor binding assays were performed in 96-well format in deep-well plates. For each 96-well plate one ampulle of membrane homogenate was thawed and diluted in binding buffer (50 mM Tris pH=7.4, 100 mM KCl) and 200 μL was dispensed into each well. Radioligand [3H]Ro151788 (Perkin Elmer: NET757250UC) was prepared in binding buffer and added to each well in 50 μL volume to give final concentration of 0.5 nM. Test compounds in suitable concentration(s) were added in additional 50 μL. The final assay volume was 300 μL. Incubation was carried out for 60 minutes at 4° C. For non-specific binding 10 μM unlabeled diazepam was used. After incubation samples were filtered over UniFilter GF/B™ using Filtermate Harvester (Perkin Elmer) and washed with 5×1 mL binding buffer. The plate was dried at 40° C. for an hour and 40 μL Microscint (Perkin Elmer) scintillation cocktail was added to each well. The plate was read in Microbeta (Perkin Elmer).

SMILES	pKi
Cc1nnn(-c2ccc(F)cc2)c1COc1ccc2c(n1)CN(C(=O)C(F)(F)F)C2 [US12370182, Example 51]	7.51
Cc1onc(-c2ccc(F)cc2)c1COc1ccc2c(n1)CCN(C(=O)N1CCCCC1)C2 [US12370182, Example 85]	7.44

— BindingDB's records for patent US12370182 (Richter Gedeon, 2025)
